pIC50: −log10 of the molar value.
Test system: 922993-354-T-J3-PDC complex spheroids, viability, % test/control
Assay: Anticancer human tumor 922993-354-T-J3-PDC patient-derived endometrial carcinoma cell line growth inhibition [CLK]
Conditions: for pIC50: curve of first compound; for viability, T/C: stronger effect = lower value
Outline: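 Patient-derived tumor cells grown as complex spheroids with HUVEC endothelial cells and mesenchymal stem cells, treated with drug combinations. Concentrations descend in half-log steps from near clinical Cmax, or from 10 microM if Cmax unknown.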

[1] = second compound 0.0316 µM, first compound 0.0316 µM
[2] = second compound 0.0316 µM, first compound 0.1 µM
[3] = second compound 0.0316 µM, first compound 0.316 µM
[4] = second compound 0.0316 µM, first compound 1 µM
[5] = second compound 0.0316 µM, first compound 3.16 µM
[6] = second compound 0.0316 µM, first compound 10 µM
[7] = second compound 0.1 µM, first compound 0.0316 µM
[8] = second compound 0.1 µM, first compound 0.1 µM
[9] = second compound 0.1 µM, first compound 0.316 µM
[10] = second compound 0.1 µM, first compound 1 µM
[11] = second compound 0.1 µM, first compound 3.16 µM
[12] = second compound 0.1 µM, first compound 10 µM
[13] = second compound 0.316 µM, first compound 0.0316 µM
[14] = second compound 0.316 µM, first compound 0.1 µM
[15] = second compound 0.316 µM, first compound 0.316 µM
[16] = second compound 0.316 µM, first compound 1 µM
[17] = second compound 0.316 µM, first compound 3.16 µM
[18] = second compound 0.316 µM, first compound 10 µM
[19] = second compound 1 µM, first compound 0.0316 µM
[20] = second compound 1 µM, first compound 0.1 µM
[21] = second compound 1 µM, first compound 0.316 µM
[22] = second compound 1 µM, first compound 1 µM
[23] = second compound 1 µM, first compound 3.16 µM
[24] = second compound 1 µM, first compound 10 µM
[25] = second compound 3.16 µM, first compound 0.0316 µM
[26] = second compound 3.16 µM, first compound 0.1 µM
[27] = second compound 3.16 µM, first compound 0.316 µM
[28] = second compound 3.16 µM, first compound 1 µM
[29] = second compound 3.16 µM, first compound 3.16 µM
[30] = second compound 3.16 µM, first compound 10 µM
[31] = second compound 10 µM, first compound 0.0316 µM
[32] = second compound 10 µM, first compound 0.1 µM
[33] = second compound 10 µM, first compound 0.316 µM
[34] = second compound 10 µM, first compound 1 µM
[35] = second compound 10 µM, first compound 3.16 µM
[36] = second compound 10 µM, first compound 10 µM
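Further: spheroids exposed to the agents for 7 days before readout.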

C#Cc1c(F)ccc2cc(O)cc(-c3ncc4c(N5CC6CCC(C5)N6)nc(OCC56CCCN5CC(F)C6)nc4c3F)c12 (centres undefined) + CNC(=O)c1ccc(Nc2nc(OC3CCCC3)c3c(-c4ccc5nc(C)oc5c4)c[nH]c3n2)c(OC)c1
pIC50 (second compound 0.0316 µM): < 5.00 | pIC50 (second compound 0.1 µM): < 5.00 | pIC50 (second compound 0.316 µM): < 5.00 | pIC50 (second compound 1 µM): > 7.50 | pIC50 (second compound 3.16 µM): > 7.50 | pIC50 (second compound 10 µM): > 7.50 | viability, T/C [1]: 115% | viability, T/C [2]: 98.5% | viability, T/C [3]: 103% | viability, T/C [4]: 101% | viability, T/C [5]: 115% | viability, T/C [6]: 94.1% | viability, T/C [7]: 94.9% | viability, T/C [8]: 95.2% | viability, T/C [9]: 116% | viability, T/C [10]: 107% | viability, T/C [11]: 109% | viability, T/C [12]: 97.5% | viability, T/C [13]: 61.4% | viability, T/C [14]: 64.5% | viability, T/C [15]: 63% | viability, T/C [16]: 61.8% | viability, T/C [17]: 57.1% | viability, T/C [18]: 45.6% | viability, T/C [19]: 39.5% | viability, T/C [20]: 40.6% | viability, T/C [21]: 35.5% | viability, T/C [22]: 37% | viability, T/C [23]: 40.8% | viability, T/C [24]: 35.8% | viability, T/C [25]: 29.7% | viability, T/C [26]: 29.4% | viability, T/C [27]: 29.8% | viability, T/C [28]: 30.4% | viability, T/C [29]: 34.3% | viability, T/C [30]: 36.2% | viability, T/C [31]: 30.9% | viability, T/C [32]: 29.4% | viability, T/C [33]: 30.5% | viability, T/C [34]: 33.2% | viability, T/C [35]: 33.1% | viability, T/C [36]: 31.5%

C=C(F)C(=O)N1CCN(c2nc(OCC3CCCN3C)nc3c2CCN(c2cccc4cccc(Cl)c24)C3)CC1CC#N (centres undefined) + CNC(=O)c1ccc(Nc2nc(OC3CCCC3)c3c(-c4ccc5nc(C)oc5c4)c[nH]c3n2)c(OC)c1
pIC50 (second compound 0.0316 µM): 5.25 | pIC50 (second compound 0.1 µM): 5.25 | pIC50 (second compound 0.316 µM): 5.46 | pIC50 (second compound 1 µM): > 7.50 | pIC50 (second compound 3.16 µM): > 7.50 | pIC50 (second compound 10 µM): > 7.50 | viability, T/C [1]: 109% | viability, T/C [2]: 99.7% | viability, T/C [3]: 97.5% | viability, T/C [4]: 105% | viability, T/C [5]: 94.8% | viability, T/C [6]: 6.03% | viability, T/C [7]: 89.8% | viability, T/C [8]: 104% | viability, T/C [9]: 90.7% | viability, T/C [10]: 91.9% | viability, T/C [11]: 103% | viability, T/C [12]: 4.38% | viability, T/C [13]: 61.1% | viability, T/C [14]: 50.1% | viability, T/C [15]: 58.1% | viability, T/C [16]: 44% | viability, T/C [17]: 57.4% | viability, T/C [18]: 3.61% | viability, T/C [19]: 36.6% | viability, T/C [20]: 36.2% | viability, T/C [21]: 32.7% | viability, T/C [22]: 38.5% | viability, T/C [23]: 47% | viability, T/C [24]: 0.95% | viability, T/C [25]: 28.3% | viability, T/C [26]: 32% | viability, T/C [27]: 29.9% | viability, T/C [28]: 31.3% | viability, T/C [29]: 36.6% | viability, T/C [30]: 4.89% | viability, T/C [31]: 29% | viability, T/C [32]: 33.1% | viability, T/C [33]: 30.9% | viability, T/C [34]: 29.8% | viability, T/C [35]: 38% | viability, T/C [36]: 5.43%
